Columns and labels:
TNF-R1 [1] = assay: Immunofluorescence / flow cytometry of TNF-R1 presence in human SK-N-SH cells supplied with peptide; format: cell-based; conditions: human cell line SK-N-SH, retinoic acid induction, peptide 5 μM, two days; fluorescence intensity relative to control group = 1 (FIG. 2)
Protocol: The activities of the respective peptides synthesized in Example 1 above were tested with cultured cells of a human neuroblastoma cell line (SK-N-SH). The control group was supplied with no peptides. The test details are described below.
Firstly, each peptide synthesized in Example 1 above was dissolved in DMSO to prepare a stock solution having a peptide concentration of 4 mM.
The SK-N-SH cell line was then seeded in a 4 mL fraction in a culture dish of 6 cm diameter at a density of 1.5×10^5 cells/mL and incubated overnight in a general DMEM culture medium (with 10% FBS (a Hyclone product, KSD), 2 mM L-glutamine, 50 unit/mL penicillin, and 50 μg/mL streptomycin) at 37° C. in a CO2 incubator at 5% CO2. Due to a low cell density, incubation was carried on for one more days.
After incubated over two nights, the culture medium was replaced with a fresh DMEM culture medium (with 2% FBS, 20 μM retinoic acid, 2 mM L-glutamine, 50 unit/mL penicillin, and 50 μg/mL streptomycin). Incubation was carried on for five days under the same conditions to effect retinoic acid induction.
Subsequently, the culture medium was replaced with a DMEM culture medium containing a peptide (TNF-R2 upregulating peptide or TNF-R2 downregulating peptide) in an amount equivalent to 5 μM, in addition to 2% FBS, 20 μM retinoic acid, 2 mM L-glutamine, 50 unit/mL penicillin and 50 μg/mL streptomycin (also containing 5 μL of DMSO at this point). Incubation was carried on under the same conditions for two days.
The control group (group supplied with no peptide) was incubated for two days in a DMEM culture medium (with 2% FBS, 20 μM retinoic acid, 20 μM retinoic acid, 2 mM L-glutamine, 50 unit/mL penicillin, and 50 μg/mL streptomycin) supplied only with the aforementioned amount of DMSO, without any added peptide.
(§1) After completion of the incubation, cultured cells in each test group were collected and divided into certain test tubes in fractions having the same number of cells. By the immunofluorescence technique described below, the change in the balance between the presence of TNF-R1 and TNF-R2 was then assessed in each test group (group supplied with TNF-R2 upregulating peptide, group supplied with TNF-R2 downregulating peptide).
More specifically, in each test group, for the TNF-R1 measurement, an anti-TNF-R1 mouse polyclonal antibody (a Santa Cruz Biotechnology Inc. product, SC-52739) was added to the respective test tubes to a final concentration of 2×10^−3 mg/mL and incubation was carried out under ice-cold conditions for a prescribed time period. As a secondary antibody, a goat anti-mouse IgG antibody (an Invitrogen product, A10029) labeled with a fluorescent dye (Alexa® 488) was added to the test tubes to a final concentration of 4×10^−3 mg/mL and incubation was carried out under ice-cold conditions for a prescribed time period.
(§2) In the same manner as Example 2 above, the fluorescence intensities of cells were measured with a flow cytometer. For both TNF-R1 and TNF-R2, the fluorescence intensities are shown as relative values with the fluorescence intensities of TNF-R1 and TNF-R2 in the control group (group supplied with no peptide) being 1, respectively.

TNF-R1 [2] = assay: Immunofluorescence / flow cytometry of TNF-R1 presence in mouse Neuro 2a cells supplied with peptide; format: cell-based; conditions: mouse cell line Neuro 2a, retinoic acid induction, peptide 5 μM, two days; fluorescence intensity relative to control group = 1 (FIG. 1)
Protocol: The activities of the peptides of Sample 1 and Sample 6 synthesized in Example 1 above were tested with cultured cells of a mouse […], neuroblastoma cell line (Neuro 2a). The control group was supplied with no peptides. The test details are described below.
Firstly, each peptide synthesized in Example 1 above was dissolved in PBS (phosphate buffered saline) to prepare a stock solution having a peptide concentration of 1 mM (with a small amount of dimethyl sulfoxide (DMSO)). […]
as §1, with “peptide). […]” for “peptide).”
as §2, with “The” for “In the same manner as Example 2 above, the”, “cytometer (a Millipore system product, Guava® easyCyte 8HT).” for “cytometer.”

Sequence	presence of TNF-R1 (TNF-R1 [1])	presence of TNF-R1 (TNF-R1 [2])
MAPAALWVALVFELQLWATGHT (listed as Mus musculus) [Sample 7, TNF-R2 downregulating peptide; mouse TNF-R2 signal peptide motif, linear, 22 amino acid residues]	no significant change	–
MAPVAVWAALAVGLELWAAAHA (listed as Homo sapiens) [Sample 6, TNF-R2 downregulating peptide; human TNF-R2 signal peptide motif, linear, 22 amino acid residues]	no significant change	no significant change
MGLPTVPGLLLSLVLLALLMG (listed as Mus musculus) [Sample 2, TNF-R2 upregulating peptide; mouse TNF-R1 signal peptide motif, linear, 21 amino acid residues]	no significant change	–
MGLSTVPDLLLPLVLLELLVG (listed as Homo sapiens) [Sample 1, TNF-R2 upregulating peptide; human TNF-R1 signal peptide motif, linear, 21 amino acid residues]	no significant change	no significant change
MGLSTVPGLLLPLVLRALLVD (listed as Sus scrofa) [Sample 5, TNF-R2 upregulating peptide; pig TNF-R1 signal peptide motif, linear, 21 amino acid residues]	no significant change	–

Reference: patent US10125168B2, “Synthetic peptide for adjusting balance between presence of type 1 TNF receptor and type 2 TNF receptor and use thereof” (TOAGOSEI CO., LTD., priority 2012, dated 2018)
